This note sets out measurements from US7270833B2, “Cardioplegic solution” (Jolife AB, priority 2000, dated 2007).

In experiment [1] the test system is pigs with electrically induced ventricular fibrillation. Put plainly: Internal cardiopulmonary resuscitation by continuous left ventricle infusion of potassium chloride, followed by V-A ECMO. Type of experiment: in vivo.
Protocol: The purpose of the experiment was to evaluate the effects of continuous potassium chloride infusion during internal CPR with a catheter inserted into the left ventricle and to investigate the need for ECMO (extracorporeal membrane oxygenation) after high dose potassium chloride treatment during CPR, to obtain return of ROSC after prolonged CPR.
The haemodynamic parameters continuously was measured and stored as mean values every 5 second. Blood gases was analyzed with a Radiometer™ ABL 555® blood gas machine. Drug administration (Addex® potassium 4 mmol/ml, Fresenius Kabi, Uppsala, Sweden. 40 mg/ml papaverin, NM Pharma, Stockholm, Sweden.) during CPR was given according a specific protocol.
The following data parameters were measured and stored as mean values every 5 seconds throughout the experiment:
ECG, arterial pressure (SAP/MAP/DAP), central venous pressure (CVP), coronary perfusion pressure (CPP), carotid flow (CF), temperature, urine production (every 15 min), and blood gases.
The blood gas (Radiometer™, ABL 555®) data parameter were measured and stored intermittently or written down by hand throughout the experiment.
Electrically ventricular fibrillation was induced electrically in healthy test pigs (25-80 kg in body weight) at normothermic conditions (a body temperature of 38° C.). After 90 seconds of untreated ventricular fibrillation internal heart massage started manually and continued for 60 min. At the same time a booster injection of 10 ml potassium (Addex® potassium 4 mmol/ml, Fresenius Kabi, Uppsala, Sweden) and 3 ml papaverin sulfate (Papaverin 40 mg/ml, NM Pharma, Stockholm, Sweden) was given. Directly after a potassium infusion (Addex® potassium 4 mmol/ml, Fresenius Kabi, Uppsala, Sweden) was started (100 ml/h for 20 min, 50 ml/h for 20 min, 20 ml/h for 20 min). […] After 60 minutes of resuscitation V-A (venoarterial) ECMO was established and by ultrafiltration the serum potassium ion concentration was reduced towards normal levels.
After the 6-hour test period, the animal was put to death with a euthanasia solution.
The test system of experiment [2] is pigs with ventricular fibrillation. Briefly: Potassium chloride cardioplegia during heart compressions in pigs with induced ventricular fibrillation. Format: in vivo, pig. To be noted: for development of stone heart: pigs, induced ventricular fibrillation, continuous infusion of potassium chloride, heart compressions for 1 hour. On the procedure:
Due to the access to the new external chest compression machine, “Lucas”, we have run extensive experiments in pigs. Until now we have run experiments in 5 years and used over 800 pigs. This new machine is much more efficient than manual compression of the chest. About 30% of the pigs with ventricular fibrillation survived 1 hour of external heart massage with the machine in normothermia. With manual compression no pigs survived 15 minutes. […] We noticed that this started to happen after 15 minutes.
The idea then came up that if cardioplegia is induced to the heart during heart arrest, it would be possible to eliminate this stone heart condition and make 100% of the hearts survive 60 minutes of heart compression. In clinical heart surgery we routinely use potassium to accomplish depolarisation and cardioplegia. We induced ventricular fibrillation in pigs and then induced cardioplegia in the form of potassium chloride into a central venous needle or even directly into the left ventricle, thereby inducing cardioplegia. By a continuous infusion of potassium chloride we kept the heart in a cardioplegic condition. […] After 60 minutes we cannulated the pig in the femoral artery and vein and established an extracorporeal membrane oxygenation (ECMO). […] When cardioplegia is induced in a heart at normotermia, 90% of the need for oxygen is eliminated, and the heart is arrested in a relaxed condition. Such a heart is very easy to perform external or internal heart massage on.

With `[Cl-].[K+]` [potassium chloride], the “Event: heart beating” value in experiment [1] (25 kg Swedish domestic pig, Exp. Time 2:22:01, after stop K at 2:18:38, on bypass) is given as “spontaneously”. The “Event: urine production” value in experiment [1] (25 kg Swedish domestic pig, Exp. Time 4:29:33, after off bypass at 3:42:43) was “normal urine”. The “heart rhythm / ROSC” value in experiment [1] (after 1 h of CPR in combination with potassium administration followed by ECMO, FIG. 1) is on record as “ROSC came into effect”. Moreover, the “return of spontaneous heart beat after potassium chloride washed away by filtration” value in experiment [2] (after 60 minutes of heart compressions, ECMO via femoral artery and vein) was “the heart started to beat spontaneously again”. The “recovery of hearts after heart massage” value in experiment [2] (experimental animal with acute ventricular fibrillation, after one hour of heart massage) is on record as “possible to recover all hearts”. Also, the “development of stone heart” value is “without the development of stone heart” in experiment [2] and “eliminates the development of stone heart” in experiment [2] (listed as potassium).
